In assay [1] the target is T1, human thyroid hormone receptor α (Homo sapiens, UniProt P10827).
T1 sequence (P10827 1-370): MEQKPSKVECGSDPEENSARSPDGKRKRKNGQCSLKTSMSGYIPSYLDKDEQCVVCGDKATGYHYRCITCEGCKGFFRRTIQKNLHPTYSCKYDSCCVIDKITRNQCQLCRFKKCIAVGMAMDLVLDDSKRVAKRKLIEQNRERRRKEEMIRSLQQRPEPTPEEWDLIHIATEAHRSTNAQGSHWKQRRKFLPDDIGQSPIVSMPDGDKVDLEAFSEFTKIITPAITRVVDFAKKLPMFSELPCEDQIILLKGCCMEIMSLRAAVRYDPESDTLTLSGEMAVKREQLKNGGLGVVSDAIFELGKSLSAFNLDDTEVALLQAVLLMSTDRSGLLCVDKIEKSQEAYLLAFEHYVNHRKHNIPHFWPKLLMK
Nature of the assay: ALP reporter gene activity in TRAF α thyroid hormone reporter cells (agonism/antagonism ± T3). Type of assay: cell-based. The settings on record: for antagonism to T3 in the ThRα reporter cell line / augmention of the agonism of T3 in the ThRα reporter cell line: in the presence of 1 nM T3; for partial agonist/antagonist activity in the ThRα reporter cell line: ±1 nM T3. As to the method: (§1) The biological activity of compounds in accordance with the invention was tested in thyroid hormone responsive reporter cell lines.
(§2) The thyroid hormone reporter cell lines (TRAF α and TRAF β) are genetically engineered, mammalian cell lines expressing thyroid hormone receptor (ThR) α and β, respectively. These thyroid hormone responding cell lines contain stable integrated artificial transcription units comprised of a thyroid hormone response element (TRE) and core promoter sequences fused to a downstream reporter gene encoding a secreted form of alkaline phosphatase (ALP).
(§3) In the absence of thyroid hormone the cells express only very low levels of the ALP reporter protein. […] The level of thyroid hormone dependent ALP protein expressed can be determined indirectly by an enzymatic chemiluminescence assay as previously described (Advances in Steroid Analysis '93, editor: Gorog S., Proceedings of the 5th Symposium on the analysis of Steroids, Published by Akademiai Kiado, Budapest, Hungary, p. 57-67). Briefly, an aliquot of the conditioned cell culture medium is mixed with AMPPD (disodium 3-4-methoxyspiro(1,2-dioxetane-3,2'-tricyclo(3,3.1)decan)-4-yl) phenyl phosphate containing assay buffer and incubated at 37° C. for 20 minutes. AMPPD was purchased from Boule Diagnostic, Sweden. The ALP in the medium sample dephosphorylates AMPPD generating an unstable intermediate which decomposes and emits light which is measured in a microplate format luminometer (Luminoskan, Labsystems, Finland). The rate of light emission is directly proportional to the level of ALP present in the sample.
The TRAF α and β cells, respectively, were seeded at a density of 2-2.5×10^4 cells/well in 96-well microtiterplates (suitable for growth of mammalian cells). The cells were seeded in Coon's medium (without phenolred) (SVA, Uppsala, Sweden)+10% FCS (Gibco-BRL) (hormone stripped) and cultivated overnight at 37° C. and 5% CO2 in a humidified incubator.
The cells were then cultivated at 37° C. and 5% CO2 in a humidified incubator for an additional 48 hours.
48 hours post addition of the hormonal/test compounds, cell number and cell morphology were examined under the light-microscope. A 10 μl aliquot of conditioned medium from each well was then transferred to white microtiterplates and assayed for the level of ALP reporter protein expressed (as described in Advances in Steroid Analysis '93 above). In addition, the cell toxic effect of compounds was determined by the colorimetric MTS/PMS assay according to the suppliers recommendation (Promega Corp. through Scandinavian Diagnostic Services, Sweden)
Hormone/test compounds added to the TRAF α and β reporter cells, respectively, per well in 96-well microtiter plates

For assay [2], the target named is T2, human thyroid hormone receptor β1 (ThRβ1) (Homo sapiens, UniProt P10828).
T2 sequence (P10828 1-461): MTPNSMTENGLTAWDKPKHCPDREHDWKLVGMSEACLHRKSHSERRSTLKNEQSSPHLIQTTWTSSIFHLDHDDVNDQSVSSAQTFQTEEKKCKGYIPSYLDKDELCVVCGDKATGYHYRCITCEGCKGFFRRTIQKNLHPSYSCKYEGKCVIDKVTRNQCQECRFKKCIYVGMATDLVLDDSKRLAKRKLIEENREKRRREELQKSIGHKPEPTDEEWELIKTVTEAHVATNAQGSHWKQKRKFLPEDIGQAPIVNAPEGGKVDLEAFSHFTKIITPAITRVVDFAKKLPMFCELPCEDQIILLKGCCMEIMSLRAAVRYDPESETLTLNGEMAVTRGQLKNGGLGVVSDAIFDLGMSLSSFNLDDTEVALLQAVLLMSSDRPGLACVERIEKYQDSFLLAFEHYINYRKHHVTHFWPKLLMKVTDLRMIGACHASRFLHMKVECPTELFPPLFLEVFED
Nature of the assay: Competition with 125I-T3 for binding to human thyroid hormone receptor β1 (ThRβ1). Particulars: competition with 0.2 nM 125I-T3. As to the method:
(§4) A series of dilutions of each compound produced (Examples 1-15) were allowed to compete with a fixed concentration (0.2 nM) of ^125 I-T3 for binding to the human thyroid hormone receptor β1 (ThRβ1). In some examples, binding to the human thyroid hormone receptor α1 (ThRα1) was included.
(§5) After reaching equilibrium a separation step on Sephadex-G25 columns was introduced whereby the receptors were separated from compounds of low molecular weight (i.e the radioactive labeled hormones). The eluated receptor bound radioactivity was measured in a gamma-counter or with regular liquid scintillation counting.
(§6) An IC50 -value (The concentration of compound required to inhibit 50% of the binding of radioactive labeled hormone) was calculated from the curves.

The target of assay [3] is T3, human thyroid hormone receptor α1 (ThRα1) (Homo sapiens, UniProt P10827).
T3 sequence (P10827 1-410 isoform P10827-2): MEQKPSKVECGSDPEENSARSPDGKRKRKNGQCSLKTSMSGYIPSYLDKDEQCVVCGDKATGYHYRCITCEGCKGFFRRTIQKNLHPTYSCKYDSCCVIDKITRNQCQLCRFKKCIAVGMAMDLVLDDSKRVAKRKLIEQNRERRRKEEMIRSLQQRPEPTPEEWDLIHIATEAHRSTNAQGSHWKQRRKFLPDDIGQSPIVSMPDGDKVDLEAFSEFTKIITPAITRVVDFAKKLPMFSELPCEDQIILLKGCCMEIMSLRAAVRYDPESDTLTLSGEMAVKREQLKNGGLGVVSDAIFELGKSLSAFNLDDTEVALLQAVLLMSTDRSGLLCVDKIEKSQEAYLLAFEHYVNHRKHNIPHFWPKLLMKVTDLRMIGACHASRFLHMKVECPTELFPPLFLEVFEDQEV
Nature of the assay: Competition with 125I-T3 for binding to human thyroid hormone receptor α1 (ThRα1). The settings on record: competition with 0.2 nM 125I-T3. As to the method:
as §4, §5, §6

Assay [4] has as its target T4, human thyroid hormone receptor β (Homo sapiens, UniProt P10828).
T4 sequence (P10828 1-461): T2 sequence (P10828 1-461)
Nature of the assay: ALP reporter gene activity in TRAF β thyroid hormone reporter cells (agonism/antagonism ± T3). Type of assay: cell-based. Particulars: for antagonist activity in the ThRβ reporter cell line: in the presence of 1 nM T3. As to the method: as §1, §2, §3
The TRAF α and β cells, respectively, were seeded at a density of 2-2.5×10^4 cells/well in 96-well microtiterplates (suitable for growth of mammalian cells). […]
48 hours post addition of the hormonal/test compounds, cell number and cell morphology were examined under the light-microscope. […] In addition, the cell toxic effect of compounds was determined by the colorimetric MTS/PMS assay according to the suppliers recommendation (Promega Corp. through Scandinavian Diagnostic Services, Sweden) […]
In general terms: In a reporter assay the amount or activity of a reporter protein is the signal.

Each structure is given as a SMILES string.

Regarding `CCCCc1oc2ccc(NS(=O)(=O)C(F)(F)F)cc2c1C(=O)c1cc(I)c(OCC(=O)O)c(I)c1` [Example 1, 2-n-Butyl-3(3,5-diiodo-4-carboxymethoxybenzoyl)-5-trifluoromethylsulphonamidobenzofuran], in assay [1], the “antagonism to T3 in the ThRα reporter cell line” value is on record as “no antagonism to T3” and the “augmention of the agonism of T3 in the ThRα reporter cell line” value is “concentration dependent augmention of the agonism of T3”. The IC50 in assay [2] is 2.24 µM.
For `CCCCc1oc2ccc(NC(=O)C(C)C)cc2c1C(=O)c1cc(I)c(OCC(=O)O)c(I)c1` [Example 2] the same measures were “no antagonism to T3”, “concentration dependent augmention of the agonism of T3” and 6.61 µM.
Regarding `CCCCc1oc2ccc(NC(=O)c3ccc(OC)cc3)cc2c1C(=O)c1cc(I)c(OCC(=O)O)c(I)c1` [Example 3, 2-n-Butyl-3-(3,5-diiodo-4-carboxymethoxybenzoyl)-5-(4-methoxybenzamido)benzofuran], the IC50 in assay [2] was 1.51 µM.
For `CCCCc1oc2ccc(NC(=O)c3ccc(O)cc3)cc2c1C(=O)c1cc(I)c(OCC(=O)O)c(I)c1` [Example 4, 2-n-Butyl-3-(3,5-diiodo-4-carboxymethoxybenzoyl)-5-(4-hydroxybenzamido)benzofuran], the half-maximal inhibitory concentration (IC50) is 2.51 µM in assay [3] and 2.04 µM in assay [2].
For `CC(C)c1oc2ccc(NS(=O)(=O)C(F)(F)F)cc2c1Cc1cc(I)c(OCC(=O)O)c(I)c1` [Example 5, 2-Isopropyl-3-(3,5-diiodo-4-carboxymethoxybenzyl)-5-trifluoromethylsulphonamidobenzofuran], in assay [1], the “antagonism to T3 in the ThRα reporter cell line” value is on record as “no antagonism to T3” and the “augmention of the agonism of T3 in the ThRα reporter cell line” value is “concentration dependent augmention of the agonism of T3”. The IC50 in assay [2] is 7.94 µM.
On to `CC(C)c1oc2ccc(NS(=O)(=O)C(F)(F)F)cc2c1C(=O)c1cc(I)c(OCC(=O)O)c(I)c1` [Example 6, 2-isopropyl-3-(3,5-diiodo-4-carboxymethoxybenzoyl)-5-trifluoromethylsulphonamidobenzofuran], for which the IC50 in assay [2] is 3.72 µM.
Turning to `COc1ccc(C(=O)Nc2ccc3oc(C(C)C)c(C(=O)c4cc(I)c(OCC(=O)O)c(I)c4)c3c2)cc1` [Example 7, 2-Isopropyl-3-(3,5-diiodo-4-carboxymethoxybenzoyl)-5-(4-methoxybenzamido)benzofuran], the IC50 in assay [2] was 3.63 µM.
As for `CC(C)c1oc2ccc(NC(=O)c3ccc(O)cc3)cc2c1C(=O)c1cc(I)c(OCC(=O)O)c(I)c1` [Example 8, 2-Isopropyl-3-(3,5-diiodo-4-carboxymethoxybenzoyl)-5-(4-hydroxybenzamido)benzofuran], in assay [2], the 50% inhibitory concentration (IC50) was 1.82 µM.
Take `CCCCc1oc2ccc(NC(=O)c3ccc(F)cc3)cc2c1C(=O)c1cc(I)c(OCC(=O)O)c(I)c1` [Example 9, 2-n-Butyl-3-(3,5-diiodo-4-carboxymethoxybenzoyl)-5-(4-fluorobenzamido)benzofuran]: the figures for the IC50 in assay [3] and in assay [2] were 3.31 µM and 3.55 µM, respectively.
As to `CC(C)c1oc2ccc(NC(=O)c3ccc([N+](=O)[O-])cc3)cc2c1C(=O)c1cc(I)c(OCC(=O)O)c(I)c1` [Example 10, 2-Isopropyl-3-(3,5-diiodo-4-carboxymethoxybenzoyl)-5-(4-nitrobenzamido)benzofuran], the IC50 in assay [2] was 4.27 µM.
As to `CCCCc1oc2ccc(NC(=O)Nc3ccc(OC)cc3)cc2c1C(=O)c1cc(I)c(OCC(=O)O)c(I)c1` [Example 11, 2-n-Butyl-3-(3,5-diiodo-4-carboxymethoxybenzoyl)-5-(4-methoxyphenylureido)benzofuran], the “partial agonist/antagonist activity in the ThRα reporter cell line” value in assay [1] is “partial agonist/antagonist activity”. Further, the values for the IC50 in assay [3] and in assay [2] were 3.24 µM and 3.72 µM, respectively. In assay [4] (±1 nM T3), the “partial agonist/antagonist activity in the ThRβ reporter cell line” value was “partial agonist/antagonist activity”.
With `CCCCc1oc2ccc(NC(=O)Nc3ccc(O)cc3)cc2c1C(=O)c1cc(I)c(OCC(=O)O)c(I)c1` [Example 12, 2-n-Butyl-3-(3,5-diiodo-4-carboxymethoxybenzoyl)-5-(4-hydroxyphenylureido)benzofuran], the IC50 in assay [3] was 1.82 µM; in assay [2] it was 1.26 µM.
For `CCCCc1oc2ccc(NC(=O)c3ccc(O)cc3)cc2c1C(=O)c1cc(Br)c(OCC(=O)O)c(Br)c1` [Example 13, 2-n-Butyl-3-(3,5-dibromo-4-carboxymethoxybenzoyl)-5-(4-hydroxybenzamido)benzofuran] the same measures were 2.57 µM and 2.4 µM.
`COc1ccc(C(=O)Nc2ccc3oc(C(C)C)c(C(=O)c4cc(Br)c(OCC(=O)O)c(Br)c4)c3c2)cc1` [Example 14, 2-Isopropyl-3-(3,5-dibromo-4-carboxymethoxybenzoyl)-5-(4-methoxybenzamido)benzofuran]: the “partial agonist/antagonist activity in the ThRα reporter cell line” value in assay [1] is reported as “partial agonist/antagonist activity”. In addition, the IC50 in assay [3] was 3.63 µM; in assay [2], 3.47 µM. Moreover, the “antagonist activity in the ThRβ reporter cell line” value in assay [4] is recorded as “no or only weak antagonist activity”.
For `CC(C)c1oc2ccc(NC(=O)c3ccc(O)cc3)cc2c1C(=O)c1cc(Br)c(OCC(=O)O)c(Br)c1` [Example 15, 2-Isopropyl-3-(3,5-dibromo-4-carboxymethoxybenzoyl)-5-(4-hydroxybenzamido)benzofuran] the same measures were “partial agonist/antagonist activity”, 3.09 µM, 3.31 µM and “no or only weak antagonist activity”.

In general, IC50 refers to the concentration that gives 50% inhibition.

The values are drawn from patent publication US5854282A, “3-benzoyl benzofuran derivatives as thyroid hormone antagonists” (Karo Bio AB, priority 1994, dated 1998).
